Test results taken from patent publication US9822136B2, “Chemical inhibitors of sebocyte function” (priority 2016, dated 2017).

Columns and labels:
[1] = molecular target: T1, cloned hTRPM8 channel (Homo sapiens, UniProt Q7Z2W7); assay: TRPM8 activation, FLIPR calcium assay in CHO cells; assay type: cell-based
T1 construct: host or cells: CHO cells
Protocol: The in vitro effects of test articles were first evaluated on cloned hTRPM8 channel. […] The test cells were Chinese Hamster Ovary (CHO) cells stably transfected with human TRPM8 cDNAs. […] Substances were evaluated at 8 concentrations (0.03 to 300 μM) with n=4 replicates per determination. For Fluorescence Imaging Plate Reader ([…]″) assay, cells were plated in 384-well black wall, flat clear-bottom microtiter plates (Type: BD Biocoat Poly-D-Lysine Multiwell Cell Culture Plate) at approximately 30,000 cells per well. Cells were incubated at 37° C. overnight to reach a near confluent monolayer appropriate for use in a fluorescence assay. The test procedure was to remove the growth media and to add 40 μL of HBPS containing Fluo-8 for 30 minutes at 37° C. 10 μL of test compound, vehicle, or control solutions in HBPS were then added to each well and read for 4 min using a Fluo-8 calcium kit and the […]″ instrument (Molecular Devices, Sunnyvale, California). […] J. Neurosci.
Concentration-response data were analysed via the FLIPR Control software that is supplied with the FLIPR System (MDS-AT) and fitted to a Hill equation of the following form: Response=Base+(Max−Base)/1+(xhalf/x)^rate, where: “Base” is the response at low concentrations of test compound; “Max” is the maximum response at high concentrations; “xhalf” is the EC50 (the concentration of test compound producing half-maximal activation); and “rate” is the Hill coefficient. Nonlinear least squares fits were made assuming a simple one-to-one binding model.

[2] = tested on: sebocytes; assay: Sebocyte viability, MTT assay; assay type: cell-based, human
Protocol: (§1) The activities of 1-7 and 1-8 on an immortalized sebocyte cell line were examined in the laboratory of Prof Im Myung using methods previously described [Im et al. Epigallocatechin-3-gallate suppresses IGF-I-induced lipogenesis and cytokine expression in SZ95 sebocytes. J. Invest. Dermatol. 132, 2700-8 (2012)]. Proliferation of the sebocytes was measured using the MTT assay, by examination of micrographs of the cells in culture, and ^3H-thymidine incorporation. The effects of the test agents on lipogenesis were further studied by Oil Red O staining and analysis of the lipid composition of the cells. Studies were also conducted on signaling pathways for lipogenesis [PPAR and SREBP-1, Trivedi et al. Peroxisome proliferator-activated receptors increase human sebum production. J. Invest. Dermatol. 126, 2002-9 (2006)].
The MTT assay is a colorimetric assay for cell viability. MTT [3-(4,5-dimethylthiazol-2-yl)-2-5-diphenyltetrazolium bromide], a yellow tetra-azole dye, is reduced to purple formazan in living cells by NADPH-dependent oxidoreductase enzymes. When the number of viable cells decreases the amount of enzymatic activity and purple color decreases and this can be measured with a spectrophotometer.
(§2) 1-7 and 1-8 are sensory cooling agents on the skin and activators [agonists] of the TRPM8 ion channel protein. […] The indicators used for direct comparison were sebocyte viability measured in the MTT assay and then the ^3H-thymidine incorporation assay.

[3] = tested on: sebocytes; assay: 3H-thymidine incorporation into sebocytes; assay type: cell-based, human; conditions: Homo sapiens, 3 h; uptake into sebocytes; NS = not significant
Protocol: as §1, §2

[4] = tested on: sebocytes; assay: IGF-1 stimulated lipogenesis in sebocytes (Oil Red O, thin-layer and gas chromatography of lipids); assay type: cell-based, human; conditions: IGF-1 stimulated sebocytes
Protocol: as §1, with “132, 2700-8 (2012)].” left out, “Dermatol.” for “Dermatol. 126, 2002-9 (2006)].”
J. Invest. Dermatol. […] Oil Red 0 [Sudan Red 5B] is a diazo dye used for staining neutral triglycerides and lipids on cells.

[5] = Foaming of aqueous solution on manual shaking; assay type: physicochemical; conditions: 10 mg/mL in distilled water
Protocol: The foaming seen in 7B is characteristic of a surface active agent or “surfactant” and is caused by an amphiphilic structure.
Plain water will not make bubbles because the water molecules are more strongly attracted to each other than to air. But when a surfactant is added, the surface tension of the liquid is reduced and it can wrap itself around air to form foam or soap bubbles. The foaming is enhanced when the liquid is shaken vigorously.

T1 sequence (Q7Z2W7 whole entry): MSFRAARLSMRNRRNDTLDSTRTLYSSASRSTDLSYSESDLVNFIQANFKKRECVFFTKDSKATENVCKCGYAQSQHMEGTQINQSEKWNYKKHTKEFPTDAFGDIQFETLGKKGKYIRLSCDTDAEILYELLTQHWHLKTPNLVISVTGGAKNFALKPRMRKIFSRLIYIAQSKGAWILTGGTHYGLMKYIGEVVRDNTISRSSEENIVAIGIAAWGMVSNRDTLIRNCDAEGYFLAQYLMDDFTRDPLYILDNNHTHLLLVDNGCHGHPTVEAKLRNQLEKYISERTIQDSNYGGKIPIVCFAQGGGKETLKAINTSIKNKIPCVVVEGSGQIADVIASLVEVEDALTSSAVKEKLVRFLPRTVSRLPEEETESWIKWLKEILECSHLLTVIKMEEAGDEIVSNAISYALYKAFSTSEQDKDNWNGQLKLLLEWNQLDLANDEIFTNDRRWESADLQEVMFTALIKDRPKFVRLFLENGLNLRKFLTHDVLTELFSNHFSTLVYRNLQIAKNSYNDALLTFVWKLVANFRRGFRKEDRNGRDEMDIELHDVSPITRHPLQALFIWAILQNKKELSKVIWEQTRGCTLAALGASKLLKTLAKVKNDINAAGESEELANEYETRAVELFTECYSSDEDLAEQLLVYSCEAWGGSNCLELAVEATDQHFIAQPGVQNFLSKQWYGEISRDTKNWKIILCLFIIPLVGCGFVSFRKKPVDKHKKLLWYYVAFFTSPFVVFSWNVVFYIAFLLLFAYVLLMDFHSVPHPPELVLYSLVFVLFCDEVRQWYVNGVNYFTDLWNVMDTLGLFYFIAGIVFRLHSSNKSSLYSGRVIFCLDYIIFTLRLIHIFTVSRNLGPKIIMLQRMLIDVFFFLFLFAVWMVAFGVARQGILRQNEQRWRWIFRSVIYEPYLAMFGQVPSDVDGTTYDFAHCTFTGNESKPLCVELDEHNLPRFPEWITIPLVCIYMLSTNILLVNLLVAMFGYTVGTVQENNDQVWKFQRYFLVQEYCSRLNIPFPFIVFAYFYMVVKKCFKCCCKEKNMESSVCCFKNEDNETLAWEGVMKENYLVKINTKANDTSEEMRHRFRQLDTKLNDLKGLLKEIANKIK

Activity on TRPM8 [1]: low potency
Appearance after manual shaking (FIG. 7B) [5]: foaming
SMILES: CCCCCCCCCCCP(=O)(C(C)C)C(C)C [Code 1-11, 1-diisopropylphosphorylundecane]
Activity relative to 1-8 in the MTT sebocyte assay ([2]; FIG. 4): 10,000 x
Sebocyte cell viability as % of controls (FIG. 4) ([2]; at 0.10 μM): strongly inhibited
activity at 10 µM [3]: ≥ 88%
Levels / production of squalene (thin layer chromatography, FIG. 5) [4]: lowers
